Test results: patent US12466840B2, “Small molecule inhibitors of KRAS proteins” (Merck Sharp & Dohme LLC, priority 2023, dated 2025)
Read-outs that look alike come from different tables or passages of the source.

Legend:
[1] = test system: SW620 cells (homozygous KRAS-G12V); test: Cellular phospho-ERK assay, SW620 cells; type: cell-based; settings: p-ERK vs. total ERK, read-out: SW620 pERK IC50
Protocol: Procedure for Cellular Phospho-ERK Assay in KRAS Wild Type and Mutant (G12D, G12V) Cell Lines
MKN-1 cells (JCRB JCRB0252) containing amplified wild-type KRAS, were cultured in growth medium that contains RPMI 1640-GlutaMAX™-I (ThermoFisher Scientific 61870) containing 10% heat inactivated fetal bovine serum (ThermoFisher Scientific 10091148), 1 mM sodium pyruvate and 10 mM HEPES. AsPC-1 cells (ATCC® CRL-1682™), containing homozygous KRAS-G12D activating mutation, were cultured in T150 flask in growth medium (RPMI medium 1640-GlutaMAX™-I (ThermoFisher Scientific 61870) containing 10% fetal bovine serum (ThermoFisher Scientific 10091148)). SW620 cells (ATCC® CRL-227™) containing homozygous KRAS-G12V activating mutation, were cultured in growth medium that contains RPMI 1640-GlutaMAX™-I (ThermoFisher Scientific 61870) containing 10% heat inactivated fetal bovine serum (ThermoFisher Scientific 10091148).
Cells for the assay were harvested in growth medium after TrypLE (ThermoFisher scientific 12604021) digestion and were seeded in a 384-well collagen coated cell culture plate (Corning 356702) at a density of 10,000-15,000 cells/[…]/well, and incubated at 37° C., 5% CO2 overnight. The compound (with 10 mM stock concentration) dose-response titrations were prepared [30 μM final ERK detection assay concentration and 1:3 dilutions, 10-point dose response] and appropriate amounts (270 nL) of test compounds were dispensed in a 384-well intermediate plate using an Echo 550 liquid handler. 30 μL/well of RPMI medium 1640-GlutaMAX™-I was added to the intermediate plate and the contents of the intermediate plate (10 μL/well) were then transferred to the 384-well collagen coated cell culture plate, which was incubated at 37° C., 5% CO2 for 2 h. After removal of medium from the collagen coated cell culture plate, cells were lysed in lysis buffer from Alpha SureFire® Ultra™ Multiplex p-ERK and total ERK assay kit (PerkinElmer MPSU-PTERK) containing Halt™ Protease and Phosphatase inhibitor cocktail (ThermoFisher Scientific 78446) at room temperature with constant shaking at 300 rpm for 30 minutes. The cell lysates were then transferred to an OptiPlate-384 plate (PerkinElmer 6005620), and the phosphorylation of ERK (p-ERK) and total ERK levels were detected by Alpha SureFire® Ultra™ Multiplex p-EEK kit and total ERK assay kit (PerkinElmer MPSU-PTERK) following the manufacturer's protocol. Assay plates were read on a EnVision Multimode Plate Reader (PerkinElmer), and the ratio of p-ERK vs. total ERK in each well was used as the final readout. Dose response curves were analyzed using a 4-parameter logistic model to calculate IC50 values using Spotfire software.

NRAS = NRAS (Homo sapiens (Human), UniProt P01111); test: SOS-catalyzed nucleotide exchange assay (GNE), NRAS-WT; type: biochemical; settings: TR-FRET, 60 min preincubation
Chain of NRAS (P01111 other isoform, or with tags, fused parts or gaps): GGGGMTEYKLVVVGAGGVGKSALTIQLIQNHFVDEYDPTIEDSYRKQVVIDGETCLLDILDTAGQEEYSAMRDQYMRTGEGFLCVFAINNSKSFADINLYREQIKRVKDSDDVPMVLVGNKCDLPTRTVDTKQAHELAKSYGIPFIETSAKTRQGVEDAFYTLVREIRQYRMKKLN
Description: (§1) Procedure for SOS-Catalyzed Nucleotide Exchange Assay for KRAS-WT, G12C/D/V/A/R/S, G13D, Q61H, HRAS-WT, and NRAS-WT
(§2) Recombinant KRAS-G12C protein used in this assay has an additional triple mutation (C51S/C80L/C118S). Whereas KRAS-WT, G12D/V/A/S/R, G13D, Q61H, HRAS and NRAS are in context of their WT protein sequence background. Specifically, the SOS-catalyzed nucleotide exchange assay utilizes a preformed TR-FRET complex containing a specific biotinylated RAS protein (KRAS-WT, G12C/V/D/A/S/R, G13D, Q61H, HRAS-WT, NRAS-WT; described above) with Bodipy-GDP, and Terbium-streptavidin. Compounds are preincubated with this complex for 60 minutes. Subsequently, recombinant human SOS protein and unlabeled GTP are added to initiate the exchange reaction. Small molecule inhibitors stabilize the Bodipy-GDP complex whereas the untreated protein rapidly exchanges Bodipy-GDP for unlabeled GTP resulting in reduced TR-FRET signal.
(§3) To assemble the preformed TR-FRET complexes, each biotinylated RAS protein is diluted to 2 μM in an EDTA Buffer (20 mM HEPES pH 7.5, 50 mM sodium chloride, 10 mM EDTA, and 0.01% Tween) and incubated at room temperature for one hour. This mixture is then further diluted to 90 nM in an Assay Buffer (20 mM HEPES pH 7.5, 150 mM sodium chloride, 10 mM magnesium chloride, and 0.005% Tween) containing 15 nM of Terbium-Streptavidin (Invitrogen, catalog #PV3577) and 900 nM of Bodipy-GDP (Invitrogen, catalog #G22360) and incubated at room temperature for six hours. It should be noted that this preformed TR-FRET complex for each of the RAS protein were made ahead of time, aliquoted and stored at −80° C. until the day of the experiment.
(§4) Each test compound (10 mM stock in DMSO) is diluted in DMSO to make a final-10-point, 3-fold dilution and is acoustically dispensed into a 384-well assay plate (Corning, catalog #3820) using an Echo 550 (Labcyte). Each well of the assay plate receives 3 μL of a specific 3×RAS preformed TR-FRET complex and 3 μL of Assay Buffer and is incubated at room temperature for 60 minutes (preincubation time). Each well then receives 3 μL of 3× recombinant human SOS protein and GTP (Sigma, G8877) in Assay Buffer and is incubated at room temperature for 30 minutes (G13D), 60 minutes (KRAS WT/G12C/D, H/NRAS) or 90 minutes for G12A/R/S/V and Q61H. The final reaction in each well of 9 μL consists of 3 mM GTP, specific Ras and SOS proteins in the following concentrations: KRAS-G12C/SOS=3 nM/40 nM, KRAS-WT and G12D/SOS=1 nM/40 nM, KRAS-G12V/SOS=1.25 nM/160 nM, KRAS-G12A/S/SOS=1 nM/160 nM, KRAS-G12R/SOS=1 nM/320 nM, KRAS-Q61H/SOS=1 nM/320 nM, KRAS-G13D/SOS=1.25 nM/[…], HRAS-WT and NRAS-WT=1.25 nM/40 nM.
(§5) The time-resolved fluorescence resonance energy transfer (TR-FRET) signal is measured on an Envision (PerkinElmer) plate reader: Excitation filter=340 nm; emission1=495 nm; emission2=520 nm; dichroic mirror=D400/D505; delay time=[…]. The signal of each well is determined as the ratio of the emission at 520 nm to that at 495 nm. Percent effect of each well is determined after normalization to control wells containing DMSO (no effect) or a saturating concentration of inhibitor (max effect). The apparent effect as a function of compound concentration is fit to a four-parameter logistic equation.

KRAS G13D = KRAS G13D (Homo sapiens (Human), UniProt P01116, G13D); test: SOS-catalyzed nucleotide exchange assay (GNE), KRAS G13D; type: biochemical; settings: TR-FRET, 60 min preincubation
Chain of KRAS G13D (P01116 other isoform, or with tags, fused parts or gaps G13D (already in the parent)): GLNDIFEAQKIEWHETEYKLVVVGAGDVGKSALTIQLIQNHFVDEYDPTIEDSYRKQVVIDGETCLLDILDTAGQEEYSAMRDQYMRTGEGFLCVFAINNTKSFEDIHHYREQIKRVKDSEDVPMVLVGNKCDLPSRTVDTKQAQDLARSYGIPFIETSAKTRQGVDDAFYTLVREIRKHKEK
Description: as §1, §2, §3, §4, §5

IC50 ([1]; Homo sapiens, SW-620, 2 h) [nM]	Compound	IC50 (NRAS) [nM]	IC50 (KRAS G13D) [nM]	IC50 ([1]; 2 h) [nM]
3.4	CCc1c(F)ccc2cc3[nH]nc(C)c3c(-c3nc4c5c(nc(OC[C@@]67CCCN6C[C@H](F)C7)nc5c3F)N3CCCOC[C@H]3CO4)c12 [Ex-6, (8aS)-5-(5-ethyl-6-fluoro-3-methyl-1H-benzo[f]indazol-4-yl)-4-fluoro-2-(((2R,7aS)-2-fluorotetrahydro-1H-pyrrolizin-7a(5H)-yl)methoxy)-8a,9,12,13-tetrahydro-8H,11H-7,10-dioxa-1,3,6,13a-tetraazanaphtho[1,8-ab]heptalene]	10000	1.9	–
3.9	Fc1c(-c2c(C3CC3)c(Cl)cc3[nH]ncc23)nc2c3c(nc(OC[C@@]45CCCN4C[C@H](F)C5)nc13)N1CCCOC[C@H]1CO2 [Ex-3, (8aS)-5-(6-chloro-5-cyclopropyl-1H-indazol-4-yl)-4-fluoro-2-(((2R,7aS)-2-fluorotetrahydro-1H-pyrrolizin-7a(5H)-yl)methoxy)-8a,9,12,13-tetrahydro-8H,11H-7,10-dioxa-1,3,6,13a-tetraazanaphtho[1,8-ab]heptalene]	–	–	–
1.3	F/C=C1\CN2CCC[C@@]2(COc2nc3c4c(nc(-c5c(C6(F)CC6)c(Cl)cc6[nH]ncc56)c(F)c4n2)OC[C@@H]2COCCCN32)C1 [Ex-5, (8aS)-5-(6-chloro-5-(1-fluorocyclopropyl)-1H-indazol-4-yl)-4-fluoro-2-(((S,Z)-2-(fluoromethylene)tetrahydro-1H-pyrrolizin-7a(5H)-yl)methoxy)-8a,9,12,13-tetrahydro-8H,11H-7,10-dioxa-1,3,6,13a-tetraazanaphtho[1,8-ab]heptalene]	> 11100	1.2	–
–	CCc1c(F)ccc2cc3[nH]nc(C)c3c(-c3nc4c5c(nc(OC[C@@]67CCCN6C/C(=C\F)C7)nc5c3F)N3CCCOC[C@H]3CO4)c12 [Ex-7, (8aS)-5-(5-ethyl-6-fluoro-3-methyl-1H-benzo[f]indazol-4-yl)-4-fluoro-2-(((S,Z)-2-(fluoromethylene)tetrahydro-1H-pyrrolizin-7a(5H)-yl)methoxy)-8a,9,12,13-tetrahydro-8H,11H-7,10-dioxa-1,3,6,13a-tetraazanaphtho[1,8-ab]heptalene]	8980	2.4	2.5
–	F/C=C1/CN2CCC[C@@]2(COc2nc3c4c(nc(-c5c(C6CC6)c(Cl)cc6[nH]ncc56)c(F)c4n2)OC[C@@H]2COCCCN32)C1 [Ex-1, (8aS)-5-(6-chloro-5-cyclopropyl-1H-indazol-4-yl)-4-fluoro-2-(((S,Z)-2-(fluoromethylene)tetrahydro-1H-pyrrolizin-7a(5H)-yl)methoxy)-8a,9,12,13-tetrahydro-8H,11H-7,10-dioxa-1,3,6,13a-tetraazanaphtho[1,8-ab]heptalene]	> 11100	3.7	2.6
< 1.5	CCc1c(F)ccc2cc3[nH]ncc3c(-c3nc4c5c(nc(OC[C@@]67CCCN6C/C(=C\F)C7)nc5c3F)N3CCCOC[C@H]3CO4)c12 [Ex-4, (8aS)-5-(5-ethyl-6-fluoro-1H-benzo[f]indazol-4-yl)-4-fluoro-2-(((S,Z)-2-(fluoromethylene)tetrahydro-1H-pyrrolizin-7a(5H)-yl)methoxy)-8a,9,12,13-tetrahydro-8H,11H-7,10-dioxa-1,3,6,13a-tetraazanaphtho[1,8-ab]heptalene]	2820	0.89	–
–	CCc1c(F)ccc2cc3[nH]ncc3c(-c3nc4c5c(nc(OC[C@@]67CCCN6C[C@H](F)C7)nc5c3F)N3CCCOC[C@H]3CO4)c12 [Ex-2, (8aS)-5-(5-ethyl-6-fluoro-1H-benzo[f]indazol-4-yl)-4-fluoro-2-(((2R,7aS)-2-fluorotetrahydro-1H-pyrrolizin-7a(5H)-yl)methoxy)-8a,9,12,13-tetrahydro-8H,11H-7,10-dioxa-1,3,6,13a-tetraazanaphtho[1,8-ab]heptalene]	7020	1	2.4
